28 compounds from patent US9416141B2 (University of Washington through its Center for …, priority 2012, dated 2016) can be followed below.

In this assay the test system is hair cells. Nature of the assay: Hair cell toxicity assay in zebrafish (neomycin-induced hair cell death, DASPEI staining of neuromasts). The note with it: Danio rerio; for Emax at 2.8 µM: maximum observed @ 2.8 μM test compound; for EC50: zebrafish larvae 5-7 dpf, 1 h pre-treatment, then 200 micromolar neomycin + test compound 30 min, read-out: HC50 (concentration that would produce 50% hair cell survival); for Emax at 25 µM: maximum observed @ 25 μM test compound; for Emax at 8.3 µM: maximum observed @ 8.3 μM test compound. Format: in vivo. Put shortly: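 Zebrafish larvae 5-7 dpf pre-treated 1 h with compound (0.010-25 μM), then 30 min with 200 μM neomycin plus compound. DASPEI stained 10 neuromasts per fish, scored 0-2 (total 0-20), normalised to vehicle controls as % hair cell survival. HC50 linearly interpolated if survival reached ≥50%; HCmax is maximum survival.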

[1] abbreviates: 200 micromolar neomycin, read-out: Max HC Protection (HCmax, % hair cell survival).

SMILES strings stand for the structures. Structures can show the parent of a compound that is named as a salt.

As to `CCN1CCc2c(sc(NC(=O)Nc3ccc(Cl)cc3)c2-c2nc(C)no2)C1` [Example 103, 1-(4-chlorophenyl)-3-[6-ethyl-3-(3-methyl-1,2,4-oxadiazol-5-yl)-4,5,6,7-tetrahydrothieno[2,3-c]pyridin-2-yl]urea hydrochloride], the Emax at 0.9 µM (maximum observed @ 0.9 μM test compound, 200 micromolar neomycin, read-out: Max HC Protection (HCmax, % hair cell survival)) came out at 12%.
For `CN(C)C(=O)CCC[N+]1(C)CCc2c(sc(NC(=O)Nc3ccc(Cl)cc3)c2C(N)=O)C1` (stereo not drawn) [Example 165, 3-Carbamoyl-2-[3-(4-chlorophenyl)ureido]-6-[4-(dimethylamino)-4-oxobutyl]-6-methyl-4,5,6,7-tetrahydrothieno[2,3-c]pyridin-6-ium trifluoroacetate], the EC50 was in the range of 1000 to 10000 nM. For the same compound, the Emax at 2.8 µM under setting [1] amounted to 52%.
Regarding `CCN1CCc2c(sc(Nc3c(Nc4ccc(Cl)cc4)c(=O)c3=O)c2C(N)=O)C1` [Example 109, 2-({2-[(4-chlorophenyl)amino]-3,4-dioxocyclobut-1-en-1-yl}amino)-6-ethyl-4,5,6,7-tetrahydrothieno[2,3-c]pyridine-3-carboxamide hydrochloride], the Emax at 25 µM under setting [1] was found to be 22%.
Regarding `CCN1CCc2c(sc(NC(=O)Nc3ccc(Cl)c4ccccc34)c2C(N)=O)C1` [Example 228, 2-{[(4-chloronaphthalen-1-yl)carbamoyl]amino}-6-ethyl-4H,5H,6H,7H-thieno[2,3-c]pyridine-3-carboxamide], the EC50 was in the range of 1000 to 10000 nM. Moreover, the Emax at 25 µM under setting [1] came to 93%.
Taken in the same sequence, the figures for `C[N+]1(CC2CC2)CCc2c(sc(NC(=O)Nc3ccc(Cl)cc3)c2C(N)=O)C1` (stereo not drawn) [Example 140, 3-Carbamoyl-2-[3-(4-chlorophenyl)ureido]-6-(cyclopropylmethyl)-6-methyl-4,5,6,7-tetrahydrothieno[2,3-c]pyridin-6-ium iodide] were under 1000 nM and 92%.
Consider `CC(C)(C)CN1CCc2c(sc(NC(=O)Nc3ccc(Cl)c4ccccc34)c2C(N)=O)C1` [Example 41, 2-[3-(4-Chloronaphthalen-1-yl)ureido]-6-neopentyl-4,5,6,7-tetrahydrothieno[2,3-c]pyridine-3-carboxamide hydrochloride], for which, under setting [1], the Emax at 8.3 µM came out at 39%.
As to `NC(=O)c1c(NC(=O)Nc2ccc(Cl)cc2)sc2c1CCN(CCCC(=O)O)C2` [Example 13, 4-{3-Carbamoyl-2-[3-(4-chlorophenyl)ureido]-4,5-dihydrothieno[2,3-c]pyridin-6(7H)-yl}butanoic acid hydrochloride], the Emax at 8.3 µM under setting [1] worked out at 17%.
Turning to `CC[N+]1(CC(C)C)CCc2c(sc(NC(=O)Nc3ccc(Cl)cc3)c2C(N)=O)C1` (stereo not drawn) [Example 200, 3-Carbamoyl-2-[3-(4-chlorophenyl)ureido]-6-ethyl-6-isobutyl-4,5,6,7-tetrahydrothieno[2,3-c]pyridin-6-ium chloride], the EC50 is under 1000 nM. Besides, the Emax at 2.8 µM under setting [1] stood at 97%.
Take `CC(C)CN1CCc2c(sc(NC(=O)Nc3ccc(Cl)cc3)c2C(N)=O)C1` [Example 26, 2-[3-(4-Chlorophenyl)ureido]-6-isobutyl-4,5,6,7-tetrahydrothieno[2,3-c]pyridine-3-carboxamide hydrochloride]: the EC50 was 1000 to 10000 nM. Further, under setting [1], the Emax at 8.3 µM is 68%.
For `CCN1CCc2c(sc(NC(=O)Nc3ccc(Br)cc3)c2C(N)=O)C1` [Example 222, 2-{[(4-bromophenyl)carbamoyl]amino}-6-ethyl-4H,5H,6H,7H-thieno[2,3-c]pyridine-3-carboxamide], the EC50 was in the range of 1000 to 10000 nM. Besides, the Emax at 25 µM under setting [1] came to 90%.
On to `NC(=O)c1c(NC(=O)Nc2ccc(Cl)cc2)sc2c1CCOC2` [Example 92, 2-[3-(4-Chlorophenyl)ureido]-5,7-dihydro-4H-thieno[2,3-c]pyran-3-carboxamide], for which, under setting [1], the Emax at 2.8 µM turned out to be 22%.
`C[N+]1(CC2CCCC2)CCc2c(sc(NC(=O)Nc3ccc(Cl)cc3)c2C(N)=O)C1` (stereo not drawn) [Example 153, 3-Carbamoyl-2-[3-(4-chlorophenyl)ureido]-6-(cyclopentylmethyl)-6-methyl-4,5,6,7-tetrahydrothieno[2,3-c]pyridin-6-ium iodide]: the EC50 is under 1000 nM. Under setting [1], the Emax at 8.3 µM amounted to 98%.
Taken in the same sequence, the figures for `CCN1CCc2c(sc(NC(=O)Nc3ccc(Cl)cc3)c2C(=O)NCC(F)(F)F)C1` [Example 96, 2-[3-(4-Chlorophenyl)ureido]-6-ethyl-N-(2,2,2-trifluoroethyl)-4,5,6,7-tetrahydrothieno[2,3-c]pyridine-3-carboxamide hydrochloride] were 1000 to 10000 nM and 57%.
For the compound `CCN1CCc2c(sc(NC(=O)Nc3cccc(F)c3)c2C(N)=O)C1` [Example 71, 6-Ethyl-2-[3-(3-fluorophenyl)ureido]-4,5,6,7-tetrahydrothieno[2,3-c]pyridine-3-carboxamide hydrochloride], the Emax at 25 µM under setting [1] was found to be 45%.
Consider `CC(C)(C)OC(=O)CCCCCN1CCc2c(sc(NC(=O)Nc3ccc(Cl)cc3)c2C(N)=O)C1` [Example 18, tert-Butyl 6-{3-carbamoyl-2-[3-(4-chlorophenyl)ureido]-4,5-dihydrothieno[2,3-c]pyridin-6(7H)-yl}hexanoate], for which the EC50 was under 1000 nM. The Emax at 2.8 µM under setting [1] turned out to be 64%.
Turning to `NC(=O)c1c(NC(=O)Nc2ccc(Cl)cc2)sc2c1CCN(CCCNC(=O)CCc1ccc(C(F)(F)F)cc1)C2` [Example 218, 2-{[(4-chlorophenyl)carbamoyl]amino}-6-(3-{3-[4-(trifluoromethyl)phenyl]propanamido}propyl)-4H,5H,6H,7H-thieno[2,3-c]pyridine-3-carboxamide], the EC50 is under 1000 nM. For the same compound, under setting [1], the Emax at 2.8 µM turned out to be 103%.
Turning to `C[N+]1(CCC(N)=O)CCc2c(sc(NC(=O)Nc3ccc(Cl)cc3)c2C(N)=O)C1` (stereo not drawn) [Example 157, 6-(3-Amino-3-oxopropyl)-3-carbamoyl-2-[3-(4-chlorophenyl)ureido]-6-methyl-4,5,6,7-tetrahydrothieno[2,3-c]pyridin-6-ium iodide], the EC50 fell in the range of 1000 to 10000 nM. Also, the Emax at 25 µM under setting [1] was 94%.
Taken in the same sequence, the figures for `CC[N+]1(CC)CCc2c(sc(NC(=O)Nc3ccc(Cl)cc3)c2C(N)=O)C1` [Example 139, 3-Carbamoyl-2-[3-(4-chlorophenyl)ureido]-6,6-diethyl-4,5,6,7-tetrahydrothieno[2,3-c]pyridin-6-ium iodide] were under 1000 nM and 99%.
On to `NC(=O)c1c(NC(=O)Nc2ccc(Cl)cc2)sc2c1CCN(C1CCNC1)C2` (racemic) [Example 7, (+/−)-2-[3-(4-Chlorophenyl)ureido]-6-(pyrrolidin-3-yl)-4,5,6,7-tetrahydrothieno[2,3-c]pyridine-3-carboxamide dihydrochloride], for which the EC50 lay within 1000 to 10000 nM. In addition, the Emax at 25 µM under setting [1] came out at 78%.
Regarding `C[N+]1(CCCC(=O)O)CCc2c(sc(NC(=O)Nc3ccc(Cl)cc3)c2C(N)=O)C1` (stereo not drawn) [Example 149, 3-Carbamoyl-6-(3-carboxypropyl)-2-[3-(4-chlorophenyl)ureido]-6-methyl-4,5,6,7-tetrahydrothieno[2,3-c]pyridin-6-ium trifluoroacetate], the Emax at 25 µM under setting [1] came out at 24%.
For the compound `NC(=O)c1c(NC(=O)Nc2ccc(Cl)cc2)sc2c1CCN(CCCNC(=O)CCc1cccnc1)C2` [Example 211, 2-{[(4-chlorophenyl)carbamoyl]amino}-6-{3-[3-(pyridin-3-yl)propanamido]propyl}-4H,5H,6H,7H-thieno[2,3-c]pyridine-3-carboxamide], the EC50 is under 1000 nM. Under setting [1], the Emax at 25 µM was 95%.
`CCN1CCCc2c(sc(NC(=O)Nc3ccc(Cl)cc3)c2C(N)=O)C1` [Example 114, 2-[3-(4-chlorophenyl)ureido)-7-ethyl-5,6,7,8-tetrahydro-4H-thieno[2,3-c]azepine-3-carboxamide hydrochloride]: the EC50 was 1000 to 10000 nM. Moreover, the Emax at 25 µM under setting [1] came out at 97%.
`CCN1CCc2c(sc(NC(=O)Nc3ccc4cc(F)ccc4c3)c2C(N)=O)C1` [Example 93, 6-ethyl-2-[3-(6-fluoronaphthalen-2-yl)ureido]-4,5,6,7-tetrahydrothieno[2,3-c]pyridine-3-carboxamide hydrochloride]: the EC50 was 1000 to 10000 nM. In addition, the Emax at 25 µM under setting [1] is 97%.
`NC(=O)c1c(NC(=O)Nc2ccc(Cl)c3ccccc23)sc2c1CCN(CC1CCC1)C2` [Example 40, 2-[3-(4-Chloronaphthalen-1-yl)ureido]-6-(cyclobutylmethyl)-4,5,6,7-tetrahydrothieno[2,3-c]pyridine-3-carboxamide hydrochloride]: the EC50 lay within 1000 to 10000 nM. Under setting [1], the Emax at 8.3 µM is 62%.
Consider `CCN1CCc2c(sc(NC(=O)Nc3ccc(F)cc3)c2C(N)=O)C1` [Example 66, 6-Ethyl-2-[3-(4-fluorophenyl)ureido]-4,5,6,7-tetrahydrothieno[2,3-c]pyridine-3-carboxamide hydrochloride], for which the EC50 was over 10000 nM. Moreover, the Emax at 25 µM under setting [1] worked out at 57%.
`CCN1CCc2c(sc(NC(=O)Nc3ccc(Cl)cc3)c2C#N)C1` [Example 87, 1-(4-Chlorophenyl)-3-(3-cyano-6-ethyl-4,5,6,7-tetrahydrothieno[2,3-c]pyridin-2-yl)urea]: the Emax at 25 µM under setting [1] worked out at 11%.
For `CCN1CCc2c(sc(NC(=O)Nc3ccc(C(=O)OC(C)(C)C)cc3)c2C(N)=O)C1` [Example 29, tert-Butyl 4-[3-(3-carbamoyl-6-ethyl-4,5,6,7-tetrahydrothieno[2,3-c]pyridin-2-yl)ureido]benzoate], the EC50 lay within 1000 to 10000 nM. The Emax at 25 µM under setting [1] was determined as 75%.
As for `CCN1Cc2sc(NC(=O)Nc3ccc(Cl)cc3)c(C(N)=O)c2C1` [Example 28, 2-[3-(4-Chlorophenyl)ureido]-5-ethyl-5,6-dihydro-4H-thieno[2,3-c]pyrrole-3-carboxamide hydrochloride], the EC50 lay in the range of 1000 to 10000 nM. The Emax at 8.3 µM under setting [1] stood at 58%.
